Legend:
johnsongrass = assay: Test C postemergence; format: in vivo, Sorghum halepense
Summary of the method: (§1)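 Sown in loam/sand → sprayed pre-emergence; or grown to 1–4 leaves in peat mix → sprayed post-emergence. Same solvent/surfactant formulation both ways. Greenhouse 13–15 d. Score 0–100 visual.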

barnyardgrass [1] = assay: Test B flooded paddy test; format: in vivo, Echinochloa crus-galli; conditions: Echinochloa crus-galli; Flood, 250 g ai/ha; 0 to 100 scale where 0 is no effect and 100 is complete control; read-out: Plant response rating, Barnyardgrass
Summary of the method: (§2)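 Greenhouse flooded-pot test: compounds dosed into 3 cm standing water over 2-leaf plants, flood held constant. Rated visually after 13–15 days on 0–100 (complete control = 100); a dash marks no test result.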

Italian ryegrass = assay: Test C postemergence; format: in vivo, Lolium multiflorum
Summary of the method: as §1

pigweed [2] = assay: Test A postemergence; format: in vivo, Amaranthus retroflexus; conditions: Amaranthus retroflexus, post-emergence, 240 h, 1000 g ai/ha, 0 to 100 scale, 0 no effect, 100 complete control, read-out: Plant response rating Pigweed
Summary of the method: (§3)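 Injury scores run from 0, no effect, to 100, complete control, judged by eye against untreated plants roughly 10 days after treatment. Chemicals carried a surfactant in a non-phytotoxic solvent and went onto loam–sand soil preemergence or onto one- to two-leaf seedlings postemergence.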

sedge, umbrella = assay: Test B flooded paddy test; format: in vivo, Cyperus difformis; conditions: Cyperus difformis, Flood, 250 g ai/ha; 0 to 100 scale where 0 is no effect and 100 is complete control; read-out: Plant response rating, Sedge, Umbrella
Summary of the method: as §2

pigweed [3] = assay: Test A preemergence; format: in vivo, Amaranthus retroflexus; conditions: Amaranthus retroflexus, pre-emergence, 240 h, 1000 g ai/ha, 0 to 100 scale, 0 no effect, 100 complete control, approx. 10 days, read-out: Pigweed plant response rating
Summary of the method: as §3

barnyardgrass [4] = assay: Test A preemergence; format: in vivo, Echinochloa crus-galli; conditions: Echinochloa crus-galli, pre-emergence, 240 h, 1000 g ai/ha, 0 to 100 scale, 0 no effect, 100 complete control, approx. 10 days, read-out: Barnyardgrass plant response rating
Summary of the method: as §3

chickweed = assay: Test C postemergence; format: in vivo, Stellaria media; conditions: Stellaria media, post-emergence
Summary of the method: as §1

corn = assay: Test C postemergence; format: in vivo, Zea mays; conditions: Zea mays, post-emergence
Summary of the method: as §1

blackgrass = assay: Test C postemergence; format: in vivo, Alopecurus myosuroides; conditions: Alopecurus myosuroides, post-emergence
Summary of the method: as §1

large (Lg) crabgrass = assay: Test C postemergence; format: in vivo, Digitaria sanguinalis; conditions: Digitaria sanguinalis, post-emergence
Summary of the method: as §1

giant foxtail [5] = assay: Test C postemergence; format: in vivo, Setaria faberii; conditions: Setaria faberi, post-emergence
Summary of the method: as §1

giant foxtail [6] = assay: Test A preemergence; format: in vivo, Setaria faberii; conditions: Setaria faberi, pre-emergence, 240 h, 1000 g ai/ha, 0 to 100 scale, 0 no effect, 100 complete control, approx. 10 days, read-out: Foxtail, Giant plant response rating
Summary of the method: as §3

[7] = 31 g ai/ha, postemergence, visual rating, scale 0 to 100 (0 no effect, 100 complete control), 13 to 15 days

With `Clc1cnc(Oc2ccccc2-n2cc(C3CC3)nn2)nc1` [Compound 160, 5-chloro-2-[2-(4-cyclopropyl-1H-1,2,3-triazol-1-yl)phenoxy]pyrimidine] the “Johnsongrass plant response rating” value (johnsongrass; [7]) was 0, the pest or weed control at 16 g/ha (johnsongrass; Sorghum halepense, post-emergence, 16 g ai/ha, postemergence, 0 is no effect, 100 is complete control, read-out: Plant response rating (0 to 100), Johnsongrass) was 0% and the pest or weed control at 125 g/ha (johnsongrass; Sorghum halepense, post-emergence, 125 g ai/ha, postemergence, visual rating, scale 0 to 100 (0 no effect, 100 complete control), read-out: Plant response rating, Johnsongrass) was 5%. For the same molecule, the pest or weed control at 62 g/ha (johnsongrass; Sorghum halepense, post-emergence, Postemergence, 62 g ai/ha, scale 0 to 100 (0 no effect, 100 complete control), read-out: Plant response rating, Johnsongrass) was 0%, the pest or weed control at 250 g/ha (barnyardgrass [1]) was 35% and the “Ryegrass, Italian plant response rating” value (Italian ryegrass; [7]) was 0. For the same molecule, the pest or weed control at 16 g/ha (Italian ryegrass; Lolium multiflorum, post-emergence, 16 g ai/ha, postemergence, 0 is no effect, 100 is complete control, read-out: Plant response rating (0 to 100), Ryegrass, Italian) was 0%, the pest or weed control at 125 g/ha (Italian ryegrass; Lolium multiflorum, post-emergence, 125 g ai/ha, postemergence, visual rating, scale 0 to 100 (0 no effect, 100 complete control), read-out: Plant response rating, Ryegrass, Italian) was 5% and the pest or weed control at 62 g/ha (Italian ryegrass; Lolium multiflorum, post-emergence, Postemergence, 62 g ai/ha, scale 0 to 100 (0 no effect, 100 complete control), read-out: Plant response rating, Ryegrass, Italian) was 0%. The pest or weed control at 1000 g/ha (pigweed [2]) was 100%, the pest or weed control at 250 g/ha (sedge, umbrella) was 75% and the pest or weed control at 1000 g/ha (pigweed [3]) was 100%. It also gave a pest or weed control at 1000 g/ha (barnyardgrass [4]) of 100%, a pest or weed control at 16 g/ha (chickweed; 16 g ai/ha, postemergence, 0 is no effect, 100 is complete control, read-out: Plant response rating (0 to 100), Chickweed) of 50% and a pest or weed control at 31 g/ha (chickweed; 31 g ai/ha, postemergence, visual rating, scale 0 to 100 (0 no effect, 100 complete control), 13 to 15 days, read-out: Chickweed plant response rating) of 55%. The pest or weed control at 125 g/ha (chickweed; 125 g ai/ha, postemergence, visual rating, scale 0 to 100 (0 no effect, 100 complete control), read-out: Plant response rating, Chickweed) was 70%, the pest or weed control at 62 g/ha (chickweed; Postemergence, 62 g ai/ha, scale 0 to 100 (0 no effect, 100 complete control), read-out: Plant response rating, Chickweed) was 80% and the plant injury at 16 g/ha (corn; 16 g ai/ha, postemergence, 0 is no effect, 100 is complete control, read-out: Plant response rating (0 to 100), Corn) was 0%. It also gave a plant injury at 31 g/ha (corn; 31 g ai/ha, postemergence, visual rating, scale 0 to 100 (0 no effect, 100 complete control), 13 to 15 days, read-out: Corn plant response rating) of 5%, a Corn plant response rating (crop injury, 0 = no effect, 100 = complete kill) at 125 g/ha (corn; 125 g ai/ha, postemergence, visual rating, scale 0 to 100 (0 no effect, 100 complete control)) of 5% and a Corn plant response rating (crop injury, 0 = no effect, 100 = complete kill) at 62 g/ha (corn; Postemergence, 62 g ai/ha, scale 0 to 100 (0 no effect, 100 complete control)) of 5%. It also gave a pest or weed control at 16 g/ha (blackgrass; 16 g ai/ha, postemergence, 0 is no effect, 100 is complete control, read-out: Plant response rating (0 to 100), Blackgrass) of 0%, a pest or weed control at 31 g/ha (blackgrass; 31 g ai/ha, postemergence, visual rating, scale 0 to 100 (0 no effect, 100 complete control), 13 to 15 days, read-out: Blackgrass plant response rating) of 0% and a pest or weed control at 125 g/ha (blackgrass; 125 g ai/ha, postemergence, visual rating, scale 0 to 100 (0 no effect, 100 complete control), read-out: Plant response rating, Blackgrass) of 15%. The pest or weed control at 62 g/ha (blackgrass; Postemergence, 62 g ai/ha, scale 0 to 100 (0 no effect, 100 complete control), read-out: Plant response rating, Blackgrass) was 5%, the pest or weed control at 16 g/ha (large (Lg) crabgrass; 16 g ai/ha, postemergence, 0 is no effect, 100 is complete control, read-out: Plant response rating (0 to 100), Crabgrass, Large) was 5% and the pest or weed control at 31 g/ha (large (Lg) crabgrass; 31 g ai/ha, postemergence, visual rating, scale 0 to 100 (0 no effect, 100 complete control), 13 to 15 days, read-out: Crabgrass, Large plant response rating) was 5%. The pest or weed control at 125 g/ha (large (Lg) crabgrass; 125 g ai/ha, postemergence, visual rating, scale 0 to 100 (0 no effect, 100 complete control), read-out: Plant response rating, Crabgrass, Large) was 10%, the pest or weed control at 62 g/ha (large (Lg) crabgrass; Postemergence, 62 g ai/ha, scale 0 to 100 (0 no effect, 100 complete control), read-out: Plant response rating, Crabgrass, Large) was 5% and the pest or weed control at 16 g/ha (giant foxtail [5]; 16 g ai/ha, postemergence, 0 is no effect, 100 is complete control, read-out: Plant response rating (0 to 100), Foxtail, Giant) was 0%. The pest or weed control at 31 g/ha (giant foxtail [5]; 31 g ai/ha, postemergence, visual rating, scale 0 to 100 (0 no effect, 100 complete control), 13 to 15 days, read-out: Foxtail, Giant plant response rating) was 5%, the pest or weed control at 125 g/ha (giant foxtail [5]; 125 g ai/ha, postemergence, visual rating, scale 0 to 100 (0 no effect, 100 complete control), read-out: Plant response rating, Foxtail, Giant) was 10% and the pest or weed control at 62 g/ha (giant foxtail [5]; Postemergence, 62 g ai/ha, scale 0 to 100 (0 no effect, 100 complete control), read-out: Plant response rating, Foxtail, Giant) was 5%. It also gave a pest or weed control at 1000 g/ha (giant foxtail [6]) of 100%.
